PubChem BioAssay (NCI)
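Tested at 5 concentrations; 48 h exposure; 96-well plates; endpoints linearly interpolated, else capped at highest concentration. The concentration for 50% growth inhibition is given as GI50. The concentration for full growth arrest is given as TGI.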

What was measured:
Assay in all cases: growth of human tumour cells (NCI), 48 h
DU-145 prostate = system: DU-145 prostate
CCRF-CEM leukemia = system: CCRF-CEM leukemia
HCT-116 colon = system: HCT-116 colon
SNB-75 CNS = system: SNB-75 CNS
HT29 colon = system: HT29 colon
MDA-MB-435 = system: MDA-MB-435
NCI-H522 lung = system: NCI-H522 lung
COLO 205 colon = system: COLO 205 colon
HS 578T breast = system: HS 578T breast
HOP-92 NSCLC = system: HOP-92 NSCLC
SF-539 CNS = system: SF-539 CNS
MALME-3M melanoma = system: MALME-3M melanoma
SF-268 CNS = system: SF-268 CNS
T-47D breast = system: T-47D breast
HL-60(TB) leukemia = system: HL-60(TB) leukemia
OVCAR-5 ovarian = system: OVCAR-5 ovarian
A498 renal = system: A498 renal
ACHN renal = system: ACHN renal
SK-MEL-28 melanoma = system: SK-MEL-28 melanoma
MOLT-4 leukemia = system: MOLT-4 leukemia
EKVX NSCLC = system: EKVX NSCLC
OVCAR-3 ovarian = system: OVCAR-3 ovarian
BT-549 breast = system: BT-549 breast
A549 NSCLC = system: A549 NSCLC
KM12 colon = system: KM12 colon
CAKI-1 renal = system: CAKI-1 renal
SK-OV-3 ovarian = system: SK-OV-3 ovarian
SW-620 colon = system: SW-620 colon
UO-31 renal = system: UO-31 renal
UACC-62 melanoma = system: UACC-62 melanoma
MCF7 breast = system: MCF7 breast
SF-295 CNS = system: SF-295 CNS
HCC-2998 colon = system: HCC-2998 colon
NCI-H460 lung = system: NCI-H460 lung
NCI-H23 lung = system: NCI-H23 lung
SK-MEL-2 melanoma = system: SK-MEL-2 melanoma
OVCAR-8 ovarian = system: OVCAR-8 ovarian
UACC-257 melanoma = system: UACC-257 melanoma
786-0 renal = system: 786-0 renal
IGROV1 ovarian = system: IGROV1 ovarian
SK-MEL-5 melanoma = system: SK-MEL-5 melanoma
OVCAR-4 ovarian = system: OVCAR-4 ovarian
MDA-MB-231 breast = system: MDA-MB-231 breast
M14 melanoma = system: M14 melanoma
SN12C renal = system: SN12C renal
LOX IMVI melanoma = system: LOX IMVI melanoma
NCI/ADR-RES ovarian = system: NCI/ADR-RES ovarian
TK-10 renal = system: TK-10 renal
HCT-15 colon = system: HCT-15 colon
RPMI-8226 leukemia = system: RPMI-8226 leukemia
MDA-MB-468 breast = system: MDA-MB-468 breast
PC-3 prostate = system: PC-3 prostate
K-562 leukemia = system: K-562 leukemia
RXF 393 renal = system: RXF 393 renal
NCI-H226 lung = system: NCI-H226 lung
HOP-62 NSCLC = system: HOP-62 NSCLC
SNB-19 CNS = system: SNB-19 CNS
U251 CNS = system: U251 CNS

## CN(C)CCOc1ccc(C(=O)C2[C@H](c3ccc(Cl)cc3)[C@@H](c3ccccc3)NC23C(=O)Nc2ccccc23)cc1 (stereo partly specified)
DU-145 prostate
  GI50: 5.78 µM
  TGI: > 18.5 µM
CCRF-CEM leukemia
  GI50: 3.98 µM
  TGI: 13.2 µM
HCT-116 colon
  GI50: 2.96 µM
  TGI: 5.51 µM
SNB-75 CNS
  GI50: 4.58 µM
  TGI: > 18.5 µM
HT29 colon
  GI50: 3.32 µM
  TGI: 7.13 µM
MDA-MB-435
  GI50: 3.04 µM
  TGI: 5.99 µM
NCI-H522 lung
  GI50: 7.52 µM
  TGI: > 18.5 µM
COLO 205 colon
  GI50: 3.58 µM
  TGI: 6.93 µM
HS 578T breast
  GI50: 3.88 µM
  TGI: > 18.5 µM
HOP-92 NSCLC
  GI50: 3.03 µM
  TGI: 12.7 µM
SF-539 CNS
  GI50: 3.14 µM
  TGI: 6.01 µM
MALME-3M melanoma
  GI50: 2.92 µM
  TGI: 5.48 µM
SF-268 CNS
  GI50: 9.62 µM
  TGI: > 18.5 µM
T-47D breast
  GI50: 9.41 µM
  TGI: > 18.5 µM
HL-60(TB) leukemia
  GI50: 4.11 µM
  TGI: 11.2 µM
OVCAR-5 ovarian
  GI50: 4.41 µM
  TGI: > 18.5 µM
A498 renal
  GI50: > 18.5 µM
  TGI: > 18.5 µM
ACHN renal
  GI50: 4.33 µM
  TGI: 11.7 µM
SK-MEL-28 melanoma
  GI50: 3.05 µM
  TGI: 5.62 µM
MOLT-4 leukemia
  GI50: 3.3 µM
  TGI: 8.62 µM
EKVX NSCLC
  GI50: 3.03 µM
  TGI: 6.21 µM
OVCAR-3 ovarian
  GI50: 3.41 µM
  TGI: 7.55 µM
BT-549 breast
  GI50: > 18.5 µM
  TGI: > 18.5 µM
A549 NSCLC
  GI50: 5.95 µM
  TGI: > 18.5 µM
KM12 colon
  GI50: 3.56 µM
  TGI: 7.3 µM
CAKI-1 renal
  GI50: 4.5 µM
  TGI: > 18.5 µM
SK-OV-3 ovarian
  GI50: > 18.5 µM
  TGI: > 18.5 µM
SW-620 colon
  GI50: 3.13 µM
  TGI: 6.05 µM
UO-31 renal
  GI50: 6.9 µM
  TGI: > 18.5 µM
UACC-62 melanoma
  GI50: 2.88 µM
  TGI: 5.59 µM
MCF7 breast
  GI50: 3.18 µM
  TGI: 6.32 µM
SF-295 CNS
  GI50: 3.22 µM
  TGI: 6.52 µM
HCC-2998 colon
  GI50: 3.07 µM
  TGI: 5.76 µM
NCI-H460 lung
  GI50: 3.29 µM
  TGI: 6.17 µM
NCI-H23 lung
  GI50: 3.95 µM
  TGI: 9.94 µM
SK-MEL-2 melanoma
  GI50: 3.6 µM
  TGI: 7.11 µM
OVCAR-8 ovarian
  GI50: 4.56 µM
  TGI: 11 µM
UACC-257 melanoma
  GI50: 3.38 µM
  TGI: 7.54 µM
786-0 renal
  GI50: 3.14 µM
  TGI: 5.83 µM
IGROV1 ovarian
  GI50: 10.4 µM
  TGI: > 18.5 µM
SK-MEL-5 melanoma
  GI50: 3.11 µM
  TGI: 5.99 µM
OVCAR-4 ovarian
  GI50: 8.79 µM
  TGI: > 18.5 µM
MDA-MB-231 breast
  GI50: 3.55 µM
  TGI: 10.2 µM
M14 melanoma
  GI50: 2.89 µM
  TGI: 5.69 µM
SN12C renal
  GI50: 10.6 µM
  TGI: > 18.5 µM
LOX IMVI melanoma
  GI50: 2.62 µM
  TGI: 5.02 µM
NCI/ADR-RES ovarian
  GI50: 5.9 µM
  TGI: > 18.5 µM
TK-10 renal
  GI50: > 18.5 µM
  TGI: > 18.5 µM
HCT-15 colon
  GI50: 3.68 µM
  TGI: 8.25 µM
RPMI-8226 leukemia
  GI50: 3.95 µM
  TGI: 11.3 µM
MDA-MB-468 breast
  GI50: 2.91 µM
  TGI: 5.74 µM
PC-3 prostate
  GI50: 3.77 µM
  TGI: 11.2 µM
K-562 leukemia
  GI50: 3.86 µM
  TGI: 11.7 µM
RXF 393 renal
  GI50: 2.88 µM
  TGI: 12 µM
NCI-H226 lung
  GI50: 7.97 µM
  TGI: > 18.5 µM
HOP-62 NSCLC
  GI50: 6.6 µM
  TGI: > 18.5 µM
SNB-19 CNS
  GI50: 8.07 µM
  TGI: > 18.5 µM
U251 CNS
  GI50: 3.13 µM
  TGI: 6.07 µM
